Article PMC12656565, “In Vitro and Ultrastructural Evaluation of the Cytotoxic and Antileishmanial Activities of Thiosemicarbazone Compounds Against Promastigotes and Axenic Amastigotes of Leishmania infantum” (Tropical Medicine and Infectious Disease, 2025)
“Also recorded” adds a separate entry of the source.

How the values were obtained:
J774.A1 macrophages [1] = system: J774.A1 macrophages; set-up: method as in PMID 33590474; settings: highest concentration tested 75 µM, previously determined in collaboration with Jacob et al., ref [20]; cited from earlier work
J774.A1 macrophages [2] = experiment: Cytokine dosage (CBA) in supernatants of uninfected macrophages; format: cell-based, Mouse; settings: 1× and 2× CC50, 72 h
Protocol: J774.A1 macrophage lineage cells were cultured in 96-well polystyrene plates containing DMEM medium supplemented with 10% FBS. Cells were incubated with the following concentrations: 1× CC50 and 2× CC50 of compounds LT-73 and LT-75 and amphotericin B, as well as 1% DMSO diluent solution as control, for 72 h. The cells used in these assays were not infected with Leishmania infantum, allowing the evaluation of cytokine modulation and cytotoxicity in uninfected macrophages. After cultivation, 100 µL of culture supernatants were collected and immediately stored at −20 °C for later use in CBA assays (Cytometric Bead Array-BD Biosciences, BD Biosciences, San Jose, CA, USA). This assay utilized a mixture of […] polystyrene beads with different fluorescence intensities, coated with specific antibodies for quantification of cytokines IFN-γ, TNF, IL-10, IL-6, IL-4, IL-2, and IL-17a present in sample supernatants. Cytokine levels were quantified using the BD Cytometric Bead Array (CBA) Mouse Th1/Th2/Th17 kit (Cat. No. 560485, BD Biosciences, San Jose, CA, USA) and analyzed on a BD FACSCalibur™ Flow Cytometer with BD CellQuest PRO Software (BD Biosciences; version 5.1 by the facility). Results are expressed in pg/mL based on standard curves provided by the manufacturer.

[3] = system: L. infantum promastigotes; experiment: Apoptosis/necrosis by annexin V-FITC and propidium iodide flow cytometry; format: cell-based, Leishmania infantum; settings: 1× and 2× IC50, 72 h
Protocol: To evaluate cell death types induced by the compounds, promastigote forms of Leishmania infantum (2 × 10^6 cells/mL) were treated with concentrations corresponding to 1× and 2× IC50 of compounds LT-73 and LT-75 for 72 h. After incubation, cells were centrifuged at 3000× g for 5 min, washed with PBS, and subsequently with 1× Buffer Solution provided by the Annexin V-FITC apoptosis detection kit (BD Biosciences, San Jose, CA, USA). Cells were then resuspended in 100 µL Buffer Solution and stained with 5 µL Annexin V conjugated to FITC, incubated for 15 min at room temperature protected from light. After incubation, cells were washed again with 1× Buffer Solution and resuspended in 200 µL of the same buffer. Subsequently, 5 µL propidium iodide (PI) were added to each sample for identification of cells with compromised membrane integrity. Samples were transferred to flow cytometry tubes and analyzed on the FACSCalibur flow cytometer (Becton Dickinson, San José, CA, USA) equipped with CellQuest PRO Software (BD Biosciences; version 5.1), within 4 h after staining. Annexin V-FITC was excited at 488 nm, with fluorescence detected at 530/30 nm; propidium iodide (PI) was excited at 488 nm and detected at 585/42 nm. Single-stained controls for Annexin V-FITC and PI were included in order to apply spillover correction (compensation) between channels.

[4] = system: L. infantum axenic amastigotes; experiment: Ultrastructural analysis (SEM/TEM) of axenic amastigote forms; format: cell-based, Leishmania infantum; settings: 1× and 2× IC50 (Amphotericin B 1× IC50), 72 h
Protocol: Differentiation of L. infantum promastigote forms into axenic amastigote forms was carried out according to the protocol by Oliveira et al., with adaptations. Stationary-phase promastigotes (72 h) were cultured in modified Schneider’s Drosophila medium supplemented with 10% fetal bovine serum (FBS) at 26 °C. Cells were collected by centrifugation (3000× g for 10 min at 4 °C), washed three times with PBS (150 mM NaCl, 20 mM phosphate buffer, pH 7.2), and adjusted to 1 × 10^6 cells/mL. Differentiation was induced in acidified Schneider’s medium (pH 5.5), supplemented with 2.5% FBS, incubated at 32 °C for seven days.
Axenic amastigotes were obtained from stationary-phase promastigotes of L. infantum following standard differentiation protocols. The cultures were maintained under controlled conditions and monitored daily by optical microscopy. Morphological observations confirmed the transition from elongated promastigotes to rounded amastigote-like forms with internalized or absent flagella. […] Cultures were regularly examined for microbial contamination, and no evidence of bacterial or fungal contamination was detected during the differentiation or experimental periods. Axenic amastigotes were exposed to compounds LT-73 and LT-75 at concentrations corresponding to the IC50 and 2× IC50, previously determined for promastigotes based on leishmanicidal activity, for analysis by scanning (SEM) and transmission electron microscopy (TEM). […]
After this period, cells were washed with PBS (phosphate-buffered saline) and fixed in a solution containing 2.5% glutaraldehyde and 4% formaldehyde in 0.1 M phosphate buffer (pH 7.4) for 24 h at 4 °C. […] Sections were contrasted with 2% uranyl acetate for 30 min and 2.5% lead citrate for 10 min, then analyzed using a Tecnai G2 Spirit TEM (FEI). […]
All images were acquired under standardized laboratory protocols. A minimum of 50 parasites per condition were analyzed by two blinded investigators and no visible precipitation or crystallization occurred during fixation.

peritoneal macrophages = system: peritoneal macrophages; set-up: method as in ref [23] Queiroz et al.; settings: ref [23] Queiroz et al.; cited from earlier work
[5] = system: J774 macrophages and Vero cells; set-up: method as in ref [21] Aliança et al.; settings: ref [21] Aliança et al.; cited from earlier work

Structure (SMILES)	CC50 (J774.A1 macrophages [1])	IFN-γ production (J774.A1 macrophages [2])	IL-6 secretion (J774.A1 macrophages [2])	Cell death profile by annexin V/PI staining (in words) [3]	TEM ultrastructural alterations [4]	cytotoxicity (peritoneal macrophages)	cytotoxicity [5]
N#Cc1ccc2[nH]cc(/C=N/NC(=S)Nc3ccc(Cl)cc3)c2c1 [LT-75]	> 75 µM	induced the production of the cytokine IFN-γ	discrete elevation detected at 1× LT-75	predominance of AV+/PI− staining; also recorded: predominantly induced apoptosis; also recorded: able to induce phosphatidylserine externalization	severe damage to the plasma membrane and cytoskeleton		
S=C(N/N=C/c1c[nH]c2ncccc12)Nc1ccccc1 [LT-73]	> 75 µM	no cytokine production was observed	IL-6 production was observed only at the CC50 concentration	predominantly induced AV+/PI− staining; also recorded: predominantly induced apoptosis; also recorded: able to induce phosphatidylserine externalization	significant alterations in the plasma membrane and flagellar pocket, chromatin condensation, mitochondrial swelling, and an increased number of intracellular vacuoles		
C[C@@H]1[C@H](O)[C@@H](C)/C=C/C=C/C=C/C=C/C=C/C=C/C=C/[C@H](O[C@@H]2O[C@H](C)[C@@H](O)[C@H](N)[C@@H]2O)C[C@@H]2O[C@](O)(C[C@@H](O)C[C@@H](O)[C@H](O)CC[C@@H](O)C[C@@H](O)CC(=O)O[C@H]1C)C[C@H](O)[C@H]2C(=O)O [Amphotericin B, reference compound]	14 ± 0.3 µM			induced apoptosis as the main form of cell death	plasma membrane rupture, alterations in the kinetoplast, and mitochondrial swelling	74.86 µM	74.7 µM
